# Source: ChEMBL document CHEMBL1201862, “PubChem BioAssay data set” (2004)
# “And” between values parts separate entries of the source, which are not always exact repeats. Equal values may be shown once.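 Briefly, cells in 96-well plates were exposed to five compound concentrations for 48 h, and endpoints were estimated by linear interpolation. GI50: concentration for 50% inhibition of growth.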 The source made the active and inactive calls. Rule as the data show it: active = GI50 up to about 1.1 µM and inactive = higher.
# Tests used:
# Assay in all cases: DTP human tumour cell line panel, 48 h
# SK-MEL-28 = tested on: SK-MEL-28
# NCI-H460 = tested on: NCI-H460
# KM12 = tested on: KM12
# MDA-MB-435 = tested on: MDA-MB-435
# PC-3 = tested on: PC-3
# MOLT-4 = tested on: MOLT-4
# A549 = tested on: A549
# M14 = tested on: M14
# HOP-92 = tested on: HOP-92
# MDA-MB-231 = tested on: MDA-MB-231
# SK-OV-3 = tested on: SK-OV-3
# OVCAR-8 = tested on: OVCAR-8
# CAKI-1 = tested on: CAKI-1
# UACC-257 = tested on: UACC-257
# UO-31 = tested on: UO-31
# SF-268 = tested on: SF-268
# NCI/ADR-RES = tested on: NCI/ADR-RES
# UACC-62 = tested on: UACC-62
# NCI-H23 = tested on: NCI-H23
# HCT-116 = tested on: HCT-116
# SN12C = tested on: SN12C
# SK-MEL-5 = tested on: SK-MEL-5
# LOX IMVI = tested on: LOX IMVI
# HT-29 = tested on: HT-29
# MCF7 = tested on: MCF7
# T47D = tested on: T47D
# U-251 = tested on: U-251
# SW-620 = tested on: SW-620
# ACHN = tested on: ACHN
# SF-539 = tested on: SF-539
# SF-295 = tested on: SF-295
# CCRF-CEM = tested on: CCRF-CEM
# NCI-H226 = tested on: NCI-H226
# TK-10 = tested on: TK-10
# Hs-578T = tested on: Hs-578T
# COLO 205 = tested on: COLO 205
# SNB-75 = tested on: SNB-75
# SNB-19 = tested on: SNB-19
# SR = tested on: SR
# RXF 393 = tested on: RXF 393
# HCT-15 = tested on: HCT-15
# 786-0 = tested on: 786-0
# HOP-62 = tested on: HOP-62
# Malme-3M = tested on: Malme-3M
# EKVX = tested on: EKVX
# RPMI-8226 = tested on: RPMI-8226
# HL-60 = tested on: HL-60
# OVCAR-3 = tested on: OVCAR-3
# HCC 2998 = tested on: HCC 2998
# DU-145 = tested on: DU-145
# A498 = tested on: A498
# K562 = tested on: K562
# OVCAR-5 = tested on: OVCAR-5
# NCI-H522 = tested on: NCI-H522
# IGROV-1 = tested on: IGROV-1
# MDA-N = tested on: MDA-N
# BT-549 = tested on: BT-549
# SK-MEL-2 = tested on: SK-MEL-2
# OVCAR-4 = tested on: OVCAR-4
compound,measurement,setting,value
COc1cc(CC2CC(c3ccc4c(c3)OCO4)OC2=O)cc(OC)c1OC (centres undefined),GI50,SK-MEL-28,> 100 µM (inactive)
same,GI50,NCI-H460,> 100 µM (inactive)
same,GI50,KM12,> 100 µM (inactive)
same,GI50,MDA-MB-435,> 100 µM (inactive)
same,GI50,PC-3,91.6 µM (inactive)
same,GI50,MOLT-4,83 µM (inactive)
same,GI50,A549,> 100 µM (inactive)
same,GI50,M14,> 100 µM (inactive)
same,GI50,HOP-92,13.6 µM (inactive)
same,GI50,MDA-MB-231,52.1 µM (inactive)
same,GI50,SK-OV-3,> 100 µM (inactive)
same,GI50,OVCAR-8,> 100 µM (inactive)
same,GI50,CAKI-1,59.2 µM (inactive)
same,GI50,UACC-257,77.4 µM (inactive)
same,GI50,UO-31,19.4 µM (inactive)
same,GI50,SF-268,> 100 µM (inactive)
same,GI50,NCI/ADR-RES,83.2 µM (inactive)
same,GI50,UACC-62,52.5 µM (inactive)
same,GI50,NCI-H23,> 100 µM (inactive)
same,GI50,HCT-116,> 100 µM (inactive)
same,GI50,SN12C,> 100 µM (inactive)
same,GI50,SK-MEL-5,43.9 µM (inactive)
same,GI50,LOX IMVI,> 100 µM (inactive)
same,GI50,HT-29,> 100 µM (inactive)
same,GI50,MCF7,> 100 µM (inactive)
same,GI50,T47D,39 µM (inactive)
same,GI50,U-251,> 100 µM (inactive)
same,GI50,SW-620,> 100 µM (inactive)
same,GI50,ACHN,> 100 µM (inactive)
same,GI50,SF-539,> 100 µM (inactive)
same,GI50,SF-295,> 100 µM (inactive)
same,GI50,CCRF-CEM,> 100 µM (inactive)
same,GI50,NCI-H226,> 100 µM (inactive)
same,GI50,TK-10,> 100 µM (inactive)
same,GI50,Hs-578T,> 100 µM (inactive)
same,GI50,COLO 205,> 100 µM (inactive)
same,GI50,SNB-75,> 100 µM (inactive)
same,GI50,SNB-19,> 100 µM (inactive)
same,GI50,SR,> 100 µM (inactive)
same,GI50,RXF 393,> 100 µM (inactive)
same,GI50,HCT-15,> 100 µM
same,GI50,786-0,> 100 µM (inactive)
same,GI50,HOP-62,> 100 µM (inactive)
same,GI50,Malme-3M,61.1 µM (inactive)
same,GI50,EKVX,65.9 µM (inactive)
same,GI50,RPMI-8226,25.1 µM (inactive)
same,GI50,HL-60,> 100 µM (inactive)
same,GI50,OVCAR-3,49.5 µM (inactive)
same,GI50,HCC 2998,> 100 µM (inactive)
same,GI50,DU-145,> 100 µM (inactive)
same,GI50,A498,> 100 µM (inactive)
same,GI50,K562,71.8 µM (inactive)
same,GI50,OVCAR-5,> 100 µM (inactive)
COC(=O)C(Cc1ccccc1)NC(=O)C(CNC(=O)OCc1ccccc1)C(=O)OCc1ccccc1 (centres undefined),GI50,KM12,> 100 µM (inactive)
same,GI50,PC-3,58.3 µM (inactive)
same,GI50,NCI-H522,29.4 µM (inactive) and 32.2 µM (inactive)
same,GI50,IGROV-1,98.4 µM (inactive) and 60.3 µM (inactive)
same,GI50,MDA-MB-231,38.7 µM (inactive) and 23 µM (inactive)
same,GI50,SK-OV-3,59.7 µM (inactive)
same,GI50,MDA-N,> 100 µM (inactive)
same,GI50,OVCAR-8,> 100 µM (inactive)
same,GI50,CAKI-1,48.6 µM (inactive) and 64 µM (inactive)
same,GI50,BT-549,> 100 µM (inactive)
same,GI50,UO-31,> 100 µM (inactive) and 95.5 µM (inactive)
same,GI50,NCI/ADR-RES,> 100 µM (inactive)
same,GI50,NCI-H23,> 100 µM (inactive)
same,GI50,HCT-116,70.3 µM (inactive) and 71 µM (inactive)
same,GI50,SN12C,> 100 µM (inactive)
same,GI50,HT-29,> 100 µM (inactive)
same,GI50,MCF7,30.2 µM (inactive) and 48.2 µM (inactive)
same,GI50,T47D,79.6 µM (inactive) and 47.8 µM (inactive)
same,GI50,U-251,31.3 µM (inactive) and 46.7 µM (inactive)
same,GI50,NCI-H226,54.8 µM (inactive) and 57.5 µM (inactive)
same,GI50,COLO 205,51.1 µM (inactive)
same,GI50,SK-MEL-2,> 100 µM (inactive) and 86.5 µM (inactive)
same,GI50,SNB-75,42.6 µM (inactive) and 21.8 µM (inactive)
same,GI50,SNB-19,> 100 µM (inactive)
same,GI50,SR,> 100 µM (inactive) and 56.1 µM (inactive)
same,GI50,RXF 393,13.2 µM (inactive)
same,GI50,HCT-15,> 100 µM
same,GI50,RPMI-8226,> 100 µM (inactive)
same,GI50,OVCAR-3,36.6 µM (inactive) and 32.3 µM (inactive)
same,GI50,HCC 2998,> 100 µM (inactive)
same,GI50,DU-145,> 100 µM (inactive)
same,GI50,A498,> 100 µM (inactive)
same,GI50,K562,> 100 µM (inactive)
same,GI50,OVCAR-5,> 100 µM (inactive)
Nc1ccc(S(=O)(=O)Nc2nccs2)cc1 [SULFATHIAZOLE],GI50,SK-MEL-28,> 100 µM (inactive)
same,GI50,NCI-H460,> 100 µM (inactive)
same,GI50,KM12,> 100 µM (inactive)
same,GI50,MDA-MB-435,> 100 µM (inactive)
same,GI50,PC-3,> 100 µM (inactive)
same,GI50,MOLT-4,> 100 µM (inactive)
same,GI50,NCI-H522,> 100 µM (inactive)
same,GI50,IGROV-1,> 100 µM (inactive)
same,GI50,A549,> 100 µM (inactive)
same,GI50,M14,> 100 µM (inactive)
same,GI50,HOP-92,0.0101 µM (active)
same,GI50,MDA-MB-231,> 100 µM (inactive)
same,GI50,SK-OV-3,> 100 µM (inactive)
same,GI50,MDA-N,> 100 µM (inactive)
same,GI50,OVCAR-8,> 100 µM (inactive)
same,GI50,BT-549,> 100 µM (inactive)
same,GI50,UACC-257,> 100 µM (inactive)
same,GI50,UO-31,> 100 µM (inactive)
same,GI50,OVCAR-4,> 100 µM (inactive)
same,GI50,SF-268,> 100 µM (inactive)
same,GI50,NCI/ADR-RES,> 100 µM (inactive)
same,GI50,UACC-62,> 100 µM (inactive)
same,GI50,NCI-H23,> 100 µM (inactive)
same,GI50,HCT-116,> 100 µM (inactive)
same,GI50,SN12C,> 100 µM (inactive)
same,GI50,SK-MEL-5,> 100 µM (inactive)
same,GI50,LOX IMVI,> 100 µM (inactive)
same,GI50,HT-29,> 100 µM (inactive)
same,GI50,MCF7,> 100 µM (inactive)
same,GI50,T47D,> 100 µM (inactive)
same,GI50,U-251,> 100 µM (inactive)
same,GI50,SW-620,> 100 µM (inactive)
same,GI50,ACHN,> 100 µM (inactive)
same,GI50,SF-539,> 100 µM (inactive)
same,GI50,SF-295,> 100 µM (inactive)
same,GI50,CCRF-CEM,> 100 µM (inactive)
same,GI50,NCI-H226,> 100 µM (inactive)
same,GI50,TK-10,> 100 µM (inactive)
same,GI50,COLO 205,> 100 µM (inactive)
same,GI50,SK-MEL-2,> 100 µM (inactive)
same,GI50,SNB-75,17 µM (inactive)
same,GI50,SNB-19,> 100 µM (inactive)
same,GI50,SR,> 100 µM (inactive)
same,GI50,RXF 393,> 100 µM (inactive)
same,GI50,HCT-15,> 100 µM
same,GI50,786-0,> 100 µM (inactive)
same,GI50,HOP-62,> 100 µM (inactive)
same,GI50,Malme-3M,> 100 µM (inactive)
same,GI50,EKVX,> 100 µM (inactive)
same,GI50,RPMI-8226,> 100 µM (inactive)
same,GI50,HL-60,> 100 µM (inactive)
same,GI50,OVCAR-3,> 100 µM (inactive)
same,GI50,HCC 2998,> 100 µM (inactive)
same,GI50,DU-145,> 100 µM (inactive)
same,GI50,A498,> 100 µM (inactive)
same,GI50,K562,> 100 µM (inactive)
same,GI50,OVCAR-5,> 100 µM (inactive)
